In experiment [1] the target is T1, Cathepsin K (Homo sapiens, UniProt P43235).
T1 construct: purchased Biovision K150-100
T1 sequence (P43235 115-329): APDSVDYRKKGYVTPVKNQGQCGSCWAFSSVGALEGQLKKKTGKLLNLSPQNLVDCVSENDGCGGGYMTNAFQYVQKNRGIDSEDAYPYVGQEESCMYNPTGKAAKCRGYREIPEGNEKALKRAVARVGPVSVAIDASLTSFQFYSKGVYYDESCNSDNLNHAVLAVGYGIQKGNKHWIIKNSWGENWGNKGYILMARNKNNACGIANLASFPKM
Description: Preliminary screening of Cathepsin K (Cathepsin K Inhibitor Screening Kit K150-100, Biovision). The experiment is classed as biochemical. To be noted: relative inhibition rate vs 10 μM FF-FMK control. Put shortly: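 Percent inhibition was derived from kinetic slopes (ΔRFU/Δt, ex 400/em 505 nm, 120 min at 37 °C), normalized between an uninhibited enzyme control and 10 μM FF-FMK. Compounds were added from 100 μM or 10 μM working solutions (10% DMSO) to Cathepsin K and preincubated 15 min at 25 °C before substrate.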

For experiment [2], the target named is T2, Cathepsin B (Homo sapiens, UniProt P07858).
T2 construct: purchased Biovision K147-100
Description: IC50 determination against Cathepsin B (Biovision kit K147-100). The following applies: for Selectiviy vs Cathepsin K (fold): selectivity for Cathepsin B over Cathepsin K; for Selectiviy vs Cathepsin L (fold): selectivity for Cathepsin B over Cathepsin L; for Selectiviy vs Cathepsin S (fold): selectivity for Cathepsin B over Cathepsin S; for selectivity for Cathepsin B: statement in words, versus Cathepsin K, L, S. The experiment is classed as biochemical. On the procedure:
2. Method for determining IC50 of compounds against cathepsin:
IC50 of compounds against Cathepsin B was determined by using Cathepsin B Inhibitor Screening Kit (Product No. K147-100) from Biovision Company;
2.1.1.2 Preparation of Cathepsin B solution: Cathepsin B enzyme (23 μl) and Cathepsin B reagent (46 μl) were added to Cathepsin B buffer (2231 μl), and mixed well, to prepare Cathepsin B enzyme solution with a volume of 2.3 ml, which was placed on ice for further use.
2.1.2 Preparation of compound solutions: 30 mM and 10 mM compound stock solutions, and control compounds were gradiently diluted in DMSO at a ratio of 1:3, wherein the maximum dilution fold was 19683; the gradiently diluted compound solution (3 μl) was added to Cathepsin K, B, L, and S buffer (27 μl), respectively, and mixed well, wherein the control compounds (FF-FMK, F-F-FMK, FF-FMK and Z-FF-FMK) were at the concentrations of 66.67, 22.22, 7.41, 2.47, 0.82, 0.27, 0.091, 0.03, 0.01, 0.0034 and 0 μM, respectively, the test compounds were at the concentrations of 1000, 333.3, 111.1, 37, 12.3, 4.1, 1.4, 0.46, 0.15, 0.05 and 0 μM, respectively, and the final concentration of DMSO was 10%.
2.1.3.2 Cathepsin B: Cathepsin B substrate (90 μl) was added to Cathepsin B buffer (1710 μl), and mixed well, to prepare Cathepsin B substrate solution with a volume of 1.8 ml, which was placed on ice for further use.
Method for screening cathepsin inhibitors: the cathepsin solution (prepared in Item 2.1.1) was added to a 384-well plate (ProxiPlate-384 Plus, Perkinelmer) at 10 μl/well, and centrifuged at 1000 rpm for Imin; the compound solution (prepared in Item 2.1.2) was then added at 2 μl/well, and every concentration was repeated in two wells; the final concentrations of the test compounds were 100, 33.3, 11.1, 3.7, 1.23, 0.41, 0.14, 0.046, 0.015, 0.005 and 0 μM, respectively, wherein the final concentration of DMSO was 1%; after centrifugation at 1000 rpm for 1 min, the plate was put in a 25° C. incubator for 15 min; the cathepsin substrate solution was then added at 8 µl/well, and centrifuged at 1000 rpm for 1 min; and finally, the fluorescence signal was read in Enspire, wherein the exciting light was at a wavelength of 400 nm, the emitting light was at a wavelength of 505 nm, and continuous reading was performed at 37° C. for 120 min.
Data analysis: the slope (S) for all the samples was calculated by ΔRFU(RFU2−RFU1) and time ΔT(T2−T1), including negative control (Enzyme Control, EC) and positive control (Inhibitor Control, IC: 10 μM (FF-FMK, F-F-FMK, FF-FMK and Z-FF-FMK), and the calculation formula was as followed: Relative inhibition rate %=(SEC−SS)/(SEC−SIC)*100. The IC50 for each compound was obtained by means of fitting by software GraphPad Prism 5.0.

[3] abbreviates: 1 μM compound, replicate 1, read-out: Inhibition % (1 μM) replicate 1.
The mark [4] stands for this setting: 1 μM compound, replicate 2, read-out: Inhibition % (1 μM) replicate 2.
Setting [5] is: 10 μM compound, replicate 1, read-out: Inhibition % (10 μM) replicate 1.
Setting [6] is: 10 μM compound, replicate 2, read-out: Inhibition % (10 μM) replicate 2.
[7] abbreviates: CTSB, Exp-1, read-out: IC50 (nM) Exp-1.
The mark [8] stands for this setting: CTSB, Exp-2, read-out: IC50 (nM) Exp-2.
Setting [9] is: CTSB, average of Exp-1 and Exp-2, read-out: Ave of IC50.
Where [10] appears, read: Table 3, average ± STDEV, read-out: Cathepsin B IC50.

Like-named read-outs stand apart in the source and are kept apart here.

One may read the inhibition as the relative decrease from the control value, in per cent. By IC50 is commonly meant the point on the concentration scale where inhibition reaches its midpoint. Take `CCCCCCNC(=O)[C@H](CCSC)NC(=O)[C@H]1O[C@@H]1C(=O)OCC` [Compound 5, (2s, 3s)-2-ethoxycarbonyl-3-[2-[(s)-4-methylthio-1-carbonyl-1-(hexylamino)butane]formylamino]epoxysuccinic acid]: the inhibition at 1 µM came out at 90.9% in experiment [1] (setting [3]) and 89.5% in experiment [1] (setting [4]). The inhibition at 10 µM in experiment [1] (setting [5]) was 91.3%; in experiment [1] (setting [6]) it was 95.7%. Besides, the IC50 in experiment [2] (setting [7]) came out at 7.19 nM; in experiment [2] (setting [8]) it was 9.33 nM; in experiment [2] (setting [9]), 8.27 nM; in experiment [2] (setting [10]), 8.27 ± 1.51 nM. For the same molecule, in experiment [2], the “Selectiviy vs Cathepsin K (fold)” value is 181 fold. In experiment [2], the “Selectiviy vs Cathepsin L (fold)” value is on record as 278 fold. The “Selectiviy vs Cathepsin S (fold)” value in experiment [2] came out at 497 fold. In addition, in experiment [2], the “selectivity for Cathepsin B” value was “strong selectivity for Cathepsin B”.
On to `CCOC(=O)[C@H]1O[C@@H]1C(=O)N[C@@H](CCSC)C(=O)NCCCc1ccccc1` [Compound 8, (2s, 3s)-2-ethoxycarbonyl-3-[2-[(s)-4-methylthio-1-carbonyl-1-(3-phenylpropylamino)butane]formylamino]epoxysuccinic acid], for which the inhibition at 1 µM in experiment [1] (setting [3]) was 80.5%; in experiment [1] (setting [4]), 78.9%. Besides, the inhibition at 10 µM in experiment [1] (setting [5]) was found to be 96.9%; in experiment [1] (setting [6]), 94.1%. Also, the IC50 stood at 17.6 nM in experiment [2] (setting [7]), 20.7 nM in experiment [2] (setting [8]), 19.2 nM in experiment [2] (setting [9]) and 19.2 ± 2.26 nM in experiment [2] (setting [10]). Also, the “Selectiviy vs Cathepsin K (fold)” value in experiment [2] was found to be 116 fold. Moreover, in experiment [2], the “Selectiviy vs Cathepsin L (fold)” value was 210 fold. In addition, in experiment [2], the “Selectiviy vs Cathepsin S (fold)” value came out at 524 fold. Moreover, the “selectivity for Cathepsin B” value in experiment [2] is listed as “strong selectivity for Cathepsin B”.
`CCOC(=O)[C@H]1O[C@@H]1C(=O)N[C@@H](CCSC)C(=O)N1CCC(c2ccccc2)CC1` [Compound 13, (2s, 3s)-2-ethoxycarbonyl-3-[2-[(s)-4-methylthio-1-carbonyl-1-(phenylpiperidinyl)butane]formylamino]epoxysuccinic acid]: the inhibition at 1 µM in experiment [1] (setting [3]) came out at 99.7%; in experiment [1] (setting [4]), 98.9%. Also, the inhibition at 10 µM is 108% in experiment [1] (setting [5]) and 106% in experiment [1] (setting [6]). For the same molecule, the half-inhibitory concentration (IC50) in experiment [2] (setting [7]) was determined as 3.76 nM; in experiment [2] (setting [8]), 4.64 nM; in experiment [2] (setting [9]), 4.2 nM; in experiment [2] (setting [10]), 4.2 ± 0.63 nM. The “Selectiviy vs Cathepsin K (fold)” value in experiment [2] turned out to be 40 fold. Further, in experiment [2], the “Selectiviy vs Cathepsin L (fold)” value was found to be 1563 fold. The “Selectiviy vs Cathepsin S (fold)” value in experiment [2] is listed as 357 fold. Further, the “selectivity for Cathepsin B” value in experiment [2] is “strong selectivity for Cathepsin B”.
Regarding `CCOC(=O)[C@H]1O[C@@H]1C(=O)N[C@@H](CCSC)C(=O)NCCc1cccc(F)c1` [Compound 34, (2s, 3s)-2-ethoxycarbonyl-3-[2-[(s)-4-methylthio-1-carbonyl-1-(3-fluorophenylethylamino)butane]formylamino]epoxysuccinic acid], the inhibition at 1 µM turned out to be 88.6% in experiment [1] (setting [3]) and 90.8% in experiment [1] (setting [4]). Besides, the inhibition at 10 µM in experiment [1] (setting [5]) came out at 94.4%; in experiment [1] (setting [6]), 95.7%. In addition, the IC50 in experiment [2] (setting [7]) worked out at 22.3 nM; in experiment [2] (setting [8]), 25.9 nM; in experiment [2] (setting [9]), 24.1 nM; in experiment [2] (setting [10]) it was 24.1 ± 2.59 nM. For the same molecule, the “Selectiviy vs Cathepsin K (fold)” value in experiment [2] is recorded as 21 fold. For the same molecule, the “Selectiviy vs Cathepsin S (fold)” value in experiment [2] is recorded as 167 fold. In experiment [2], the “selectivity for Cathepsin B” value is “strong selectivity for Cathepsin B”.
With `CCOC(=O)[C@H]1O[C@@H]1C(=O)N[C@@H](CCSC)C(=O)NC(CC)CC` [Compound 39, (2s, 3s)-2-ethoxycarbonyl-3-[2-[(s)-4-methylthio-1-carbonyl-1-(1-ethylpropylamino)butane]formylamino]epoxysuccinic acid], the inhibition at 1 µM in experiment [1] (setting [3]) turned out to be 81.5%; in experiment [1] (setting [4]), 85.2%. Further, the inhibition at 10 µM in experiment [1] (setting [5]) came to 97.3%; in experiment [1] (setting [6]), 99.5%. Also, the IC50 in experiment [2] (setting [7]) was 68.5 nM; in experiment [2] (setting [8]), 80 nM; in experiment [2] (setting [9]), 74.3 nM; in experiment [2] (setting [10]), 74.3 ± 8.18 nM. The “Selectiviy vs Cathepsin K (fold)” value in experiment [2] was determined as 22 fold. The “Selectiviy vs Cathepsin L (fold)” value in experiment [2] is recorded as 129 fold. Besides, in experiment [2], the “Selectiviy vs Cathepsin S (fold)” value amounted to 193 fold. Also, the “selectivity for Cathepsin B” value in experiment [2] is given as “strong selectivity for Cathepsin B”.
Consider `CCOC(=O)[C@H]1O[C@@H]1C(=O)N[C@@H](CCSC)C(=O)NCCCCc1ccccc1` [Compound 40, (2s, 3s)-2-ethoxycarbonyl-3-[2-[(s)-4-methylthio-1-carbonyl-1-(4-phenylbutylamino)butane]formylamino]epoxysuccinic acid], for which the inhibition at 1 µM in experiment [1] (setting [3]) was determined as 85.5%; in experiment [1] (setting [4]), 89.1%. In addition, the inhibition at 10 µM in experiment [1] (setting [5]) came out at 91.1%; in experiment [1] (setting [6]), 94.9%. Also, the IC50 in experiment [2] (setting [7]) amounted to 20.3 nM; in experiment [2] (setting [8]) it was 27.1 nM; in experiment [2] (setting [9]), 23.7 nM; in experiment [2] (setting [10]), 23.7 ± 4.78 nM. In experiment [2], the “Selectiviy vs Cathepsin K (fold)” value stood at 28 fold. The “Selectiviy vs Cathepsin L (fold)” value in experiment [2] is on record as 185 fold. Further, the “Selectiviy vs Cathepsin S (fold)” value in experiment [2] came to 149 fold. In addition, the “selectivity for Cathepsin B” value in experiment [2] is reported as “strong selectivity for Cathepsin B”.
For the molecule `CCOC(=O)[C@H]1O[C@@H]1C(=O)N[C@@H](CC(C)C)C(=O)NCCC(C)C` [zxy-37, E64d, reference compound], in experiment [1] (1 μM compound, replicate 1), the “Inhibition % (1 μM) replicate 1” value came out at 85.73%. Moreover, the “Inhibition % (1 μM) replicate 2” value in experiment [1] (1 μM compound, replicate 2) is recorded as 87.75%. The “Inhibition % (10 μM) replicate 1” value in experiment [1] (10 μM compound, replicate 1) is given as 90.96%. The “Inhibition % (10 μM) replicate 2” value in experiment [1] (10 μM compound, replicate 2) is given as 98.34%. In addition, the IC50 in experiment [2] (setting [7]) was 10.6 nM; in experiment [2] (setting [8]), 13.5 nM; in experiment [2] (setting [9]) it was 12 nM; in experiment [2] (setting [10]) it was 12 ± 2.03 nM. For the same molecule, in experiment [2], the “Selectiviy vs Cathepsin K (fold)” value was 39 fold. Moreover, the “Selectiviy vs Cathepsin L (fold)” value in experiment [2] amounted to 15 fold. For the same molecule, the “Selectiviy vs Cathepsin S (fold)” value in experiment [2] came out at 55 fold.
